Data reported in publication PMC9945734 (BMC Medicine, 2023).
Like-named read-outs stand apart in the source and are kept apart here.

Tested on: PC-3-KQ cells
Experiment: 3D spheroid invasion assay and screening of FDA-approved drugs
Type: cell-based, human
Settings: compared to vehicle control; for activity at 0.01 µM / activity at 0.1 µM / activity at 1 µM / activity at 10 µM: Homo sapiens, 72 h
Method: The invasion assay was performed as previously described. […] The plates were then centrifuged at 320 g for 4 min to cluster cells in the bottom of wells and incubated for 3 days. On the fourth day, 40 μL medium was removed from each well, 40 μL of the matrigel-medium mixture was added to each well, and cells were cultured for another 3 days. […] At the end of the incubation, images were taken using a phase contrast microscope (Eclipse Ti2, Nikon, Tokyo, Japan) with 10× object lenses, and the total area of cells and the core sphere area of cells (Fig. 1a) were measured using the Image J software. The invading area was calculated using the following formula: invasion area = total area of cells – core sphere area.
For drug screening, drugs were added to the matrigel-medium mixture when replacing the culture medium on day 4. For the initial round of screening, a final concentration of 10 μM was used for all drugs. Multiple drug concentrations were used for the second round of screening, including 0, 0.001, 0.01, 0.1, 1, and 10 μM. Duplicate wells were repeated for each concentration.

[1] = 0.01 μM (first column so headed), secondary screening of 87 hit compounds (Table S1)
[2] = 0.01 μM (first column so headed), third screening of 25 hit compounds (Table S2)
[3] = 0.01 μM (second column so headed), secondary screening of 87 hit compounds (Table S1)
[4] = 0.01 μM (second column so headed), third screening of 25 hit compounds (Table S2)
[5] = 0.1 μM, secondary screening of 87 hit compounds (Table S1)
[6] = 0.1 μM, third screening of 25 hit compounds (Table S2)
[7] = 1 μM, secondary screening of 87 hit compounds (Table S1)
[8] = 1 μM, third screening of 25 hit compounds (Table S2)
[9] = 10 μM, secondary screening of 87 hit compounds (Table S1)
[10] = 10 μM, third screening of 25 hit compounds (Table S2)
[11] = 0.01 μM (first column so headed), secondary screening of 87 hit compounds (Table S1), read-out: Invasion rates (%) of each drug’s multiple concentrations
[12] = 0.01 μM (second column so headed), secondary screening of 87 hit compounds (Table S1), read-out: Invasion rates (%) of each drug’s multiple concentrations
[13] = 0.1 μM, secondary screening of 87 hit compounds (Table S1), read-out: Invasion rates (%) of each drug’s multiple concentrations
[14] = 1 μM, secondary screening of 87 hit compounds (Table S1), read-out: Invasion rates (%) of each drug’s multiple concentrations
[15] = 10 μM, secondary screening of 87 hit compounds (Table S1), read-out: Invasion rates (%) of each drug’s multiple concentrations
[16] = 0.01 μM (first column so headed), third screening of 25 hit compounds (Table S2), read-out: Invasion rates (%) of each drug’s multiple concentrations
[17] = 0.01 μM (second column so headed), third screening of 25 hit compounds (Table S2), read-out: Invasion rates (%) of each drug’s multiple concentrations
[18] = 0.1 μM, third screening of 25 hit compounds (Table S2), read-out: Invasion rates (%) of each drug’s multiple concentrations
[19] = 1 μM, third screening of 25 hit compounds (Table S2), read-out: Invasion rates (%) of each drug’s multiple concentrations
[20] = 10 μM, third screening of 25 hit compounds (Table S2), read-out: Invasion rates (%) of each drug’s multiple concentrations

| Compound | Invasion rates (%) of each drug’s multiple concentrations (μM) [1] [%] | Invasion rates (%) of each drug’s multiple concentrations (μM) [3] [%] | Invasion rates (%) of each drug’s multiple concentrations (μM) [5] [%] | Invasion rates (%) of each drug’s multiple concentrations (μM) [7] [%] | Invasion rates (%) of each drug’s multiple concentrations (μM) [9] [%] | activity at 0.01 µM [11] [%] | activity at 0.01 µM [12] [%] | activity at 0.1 µM [13] [%] | activity at 1 µM [14] [%] | activity at 10 µM [15] [%] | further results |
| --- | --- | --- | --- | --- | --- | --- | --- | --- | --- | --- | --- |
| Cc1ncc([N+](=O)[O-])n1CC(O)CN1CCOCC1 (single isomer, unassigned) [Morinidazole (R enantiomer)] | 90.71 | 98.08 | 89.69 | 10.13 | 2.86 |  |  |  |  |  | Invasion rates (%) of each drug’s multiple concentrations (μM) [2]: 95.71%; Invasion rates (%) of each drug’s multiple concentrations (μM) [4]: 97.64%; Invasion rates (%) of each drug’s multiple concentrations (μM) [6]: 94.21%; Invasion rates (%) of each drug’s multiple concentrations (μM) [8]: 6.21%; Invasion rates (%) of each drug’s multiple concentrations (μM) [10]: 0.38% |
| Nc1c2ccccc2nc2ccccc12 [9-Aminoacridine] |  |  |  |  |  | 96 | 93.3 | 94.7 | 86.4 | 1.63 |  |
| CNC[C@H](O)c1cccc(O)c1.Cl [(R)-(-)-Phenylephrine (hydrochloride)] | 103.19 | 103.23 | 98.23 | 96.01 | 4.27 |  |  |  |  |  |  |
| CC[C@@]1(O)C(=O)OCc2c1cc1n(c2=O)Cc2cc3cc(O)ccc3nc2-1 [(S)-10-Hydroxycamptothecin] |  |  |  |  |  |  |  |  |  |  | activity at 0.01 µM (read-out: Invasion rates (%) of each drug’s multiple concentrations (μM), 0.01 μM (first column so headed), secondary screening of 87 hit compounds (Table S1)): 93.7%; activity at 0.01 µM (read-out: Invasion rates (%) of each drug’s multiple concentrations (μM), 0.01 μM (second column so headed), secondary screening of 87 hit compounds (Table S1)): 98.2%; activity at 0.1 µM (read-out: Invasion rates (%) of each drug’s multiple concentrations (μM), 0.1 μM, secondary screening of 87 hit compounds (Table S1)): 85%; activity at 1 µM (read-out: Invasion rates (%) of each drug’s multiple concentrations (μM), 1 μM, secondary screening of 87 hit compounds (Table S1)): 89.9%; activity at 10 µM (read-out: Invasion rates (%) of each drug’s multiple concentrations (μM), 10 μM, secondary screening of 87 hit compounds (Table S1)): 85.1% |
| CCN1CCN(Cc2ccc(Nc3ncc(F)c(-c4cc(F)c5nc(C)n(C(C)C)c5c4)n3)nc2)CC1.CS(=O)(=O)O [Abemaciclib (methanesulfonate)] | 93.33 | 94.22 | 93.89 | 89.88 | 47.24 |  |  |  |  |  |  |
| CC[C@@]1(O)C[C@H](O[C@H]2C[C@H](N(C)C)[C@H](O[C@H]3C[C@H](O)[C@H](O[C@H]4CCC(=O)[C@H](C)O4)[C@H](C)O3)[C@H](C)O2)c2c(cc3c(c2O)C(=O)c2c(O)cccc2C3=O)[C@H]1C(=O)OC.Cl [Aclacinomycin A hydrochloride] | 84.24 | 96.55 | 76.95 | 81.36 | 1.28 |  |  |  |  |  |  |
| CCO[C@H]1O[C@@H]2O[C@@]3(C)CC[C@H]4[C@H](C)CC[C@@H]([C@H]1C)[C@@]24OO3 [Artemotil] |  |  |  |  |  | 96.2 | 95.5 | 90.7 | 85.7 | 0.51 |  |
| CC(=O)OC[C@H]1O[C@@H]([S-])[C@H](OC(C)=O)[C@@H](OC(C)=O)[C@@H]1OC(C)=O.CCP(CC)CC.[Au+] [Auranofin] | 98.81 | 100.66 | 95.62 | 2.03 | 0.38 |  |  |  |  |  | Invasion rates (%) of each drug’s multiple concentrations (μM) [2]: 93.68%; Invasion rates (%) of each drug’s multiple concentrations (μM) [4]: 97.35%; Invasion rates (%) of each drug’s multiple concentrations (μM) [6]: 88.21%; Invasion rates (%) of each drug’s multiple concentrations (μM) [8]: 2.34%; Invasion rates (%) of each drug’s multiple concentrations (μM) [10]: 0.76% |
| Cn1cnc([N+](=O)[O-])c1Sc1ncnc2nc[nH]c12 [Azathioprine] |  |  |  |  |  | 85.2 | 91.6 | 80 | 68.3 | 33.5 |  |
| O=C(Cn1ccnc1[N+](=O)[O-])NCc1ccccc1 [Benznidazol] |  |  |  |  |  | 92.5 | 94.3 | 88.1 | 90.9 | 4.48 |  |
| CC(C)C[C@H](NC(=O)[C@H](Cc1ccccc1)NC(=O)c1cnccn1)B(O)O [Bortezomib] |  |  |  |  |  | 29.5 | 75.3 | 5.79 | 4.37 | 0.98 | activity at 0.01 µM [16]: 84.3%; activity at 0.01 µM [17]: 92.8%; activity at 0.1 µM [18]: 66.1%; activity at 1 µM [19]: 35.3%; activity at 10 µM [20]: 9.72% |
| COc1cc(Nc2c(C#N)cnc3cc(OCCCN4CCN(C)CC4)c(OC)cc23)c(Cl)cc1Cl [Bosutinib] |  |  |  |  |  | 90.7 | 97.2 | 87.3 | 69.9 | 10.1 |  |
| Cc1cc(Nc2ncc(Cl)c(Nc3ccccc3S(=O)(=O)C(C)C)n2)c(OC(C)C)cc1C1CCNCC1.Cl.Cl [Ceritinib dihydrochloride] | 88.46 | 86.07 | 92.06 | 86.82 | 39.86 |  |  |  |  |  |  |
| CN(C)[C@@H]1C(=O)C(C(N)=O)=C(O)[C@@]2(O)C(=O)C3=C(O)c4c(O)ccc(Cl)c4[C@@](C)(O)[C@H]3C[C@@H]12.Cl [Chlortetracycline (hydrochloride)] | 99.62 | 99.02 | 97.93 | 95.42 | 45.01 |  |  |  |  |  |  |
| COc1cc2ncnc(Nc3ccc(F)c(Cl)c3)c2cc1NC(=O)/C=C/CN1CCCCC1 [Dacomitinib] |  |  |  |  |  | 78.1 | 77.8 | 73.1 | 44.7 | 5.75 | activity at 0.01 µM [16]: 98.9%; activity at 0.01 µM [17]: 102%; activity at 0.1 µM [18]: 98.6%; activity at 1 µM [19]: 90.7%; activity at 10 µM [20]: 53.9% |
| CN1C[C@@H]2C[C@H]1CN2c1cc2c(cc1F)c(=O)c(C(=O)O)cn2C1CC1.CS(=O)(=O)O [Danofloxacin (mesylate)] | 94.09 | 90.56 | 86.22 | 14.57 | 3.38 |  |  |  |  |  | Invasion rates (%) of each drug’s multiple concentrations (μM) [2]: 93.23%; Invasion rates (%) of each drug’s multiple concentrations (μM) [4]: 98.11%; Invasion rates (%) of each drug’s multiple concentrations (μM) [6]: 87.17%; Invasion rates (%) of each drug’s multiple concentrations (μM) [8]: 77.40%; Invasion rates (%) of each drug’s multiple concentrations (μM) [10]: 2.06% |
| O.O.O.O.O.O.O.O=C1N=C([O-])CN1/N=C/c1ccc(-c2ccc([N+](=O)[O-])cc2)o1.O=C1N=C([O-])CN1/N=C/c1ccc(-c2ccc([N+](=O)[O-])cc2)o1.[Na+].[Na+] [Dantrolene (sodium hemiheptahydrate)] | 102.88 | 101.64 | 90.54 | 82.27 | 29.15 |  |  |  |  |  |  |
